{"source": "patent US8337835B2", "about": "“Use of an endogenous ligand for peroxisome proliferator activated receptor alpha to treat liver disorders” (priority 2009, dated 2012)", "key": {"PPARδ LBD": {"molecular_target": "T1, PPARδ LBD (Homo sapiens, UniProt Q03181)", "T1 construct": "Identical experiments were performed using the PPARδ and PPARγ LBDs; 6xHis; made in house", "T1 sequence (Q03181 211-439 limits assumed)": "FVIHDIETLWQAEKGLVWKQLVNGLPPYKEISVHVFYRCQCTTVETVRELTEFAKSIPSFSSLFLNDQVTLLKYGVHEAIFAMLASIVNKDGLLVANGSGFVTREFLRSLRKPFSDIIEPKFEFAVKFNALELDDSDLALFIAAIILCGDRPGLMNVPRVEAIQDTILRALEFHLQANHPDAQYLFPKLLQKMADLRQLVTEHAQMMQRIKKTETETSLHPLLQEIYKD", "test": "ALPHASCREEN binding assay, PPARδ ligand binding domain", "settings": "5 μM; compared with PPARδ activator GW0742", "protocol": "(§1) Binding of 16:0/18:1-GPC and known agonists to the ligand binding domain (LBD) of PPARα in the presence of various peptide motifs was determined by ALPHASCREEN™ assay (Proc Natl Acad Sci USA 105, pp. 5034-5039, 2008). Experiments used 100 nM receptor LBD, purified as 6× His tag fusion proteins (Mol Cell 17, pp. 491-502, 2005), and 20 nM of N-terminal biotinylated CBP1 peptide or other coactivator peptides in the presence of 5 μg/ml donor and acceptor beads in 50 mM MOPS (pH 7.4), 100 mM NaCl, and 0.1 mg/ml BSA for 90 min at 25° C. Signals were generated in the absence or the presence of ligand. Identical experiments were performed using the PPARδ and PPARγ LBDs.\n(§2) Stealth™ siRNA oligonucleotides were used to inhibit the gene expression of mouse ChPT1 ([…]) (SEQ ID NO: 1) and CEPT1 ([…]) (SEQ ID NO: 2) were from Invitrogen (Carlsbad, Calif.). […] Expression of ACO and CPT-1 was also assessed 24 h after addition of 50 μM 16:0/18:1-GPC in a subset of Hepa 1-6 cells previously treated with CEPT1 siRNA. mRNA levels are normalized to control L32 ribosomal mRNA. […] FIGS. 6F-H show the binding of various peptide motifs to the purified PPARα (FIG. 6F), PPARδ (FIG. 6G), and PPARγ (FIG. 6H) LBD in the presence of 5 μM of the corresponding PPAR agonist or 16:0/18:1-GPC as measured by AlphaScreen assays. […]"}, "PPARγ LBD": {"molecular_target": "T2, PPARγ LBD (Homo sapiens, UniProt P37231)", "T2 construct": "Identical experiments were performed using the PPARδ and PPARγ LBDs; 6xHis; made in house", "T2 sequence (P37231 238-503 limits assumed)": "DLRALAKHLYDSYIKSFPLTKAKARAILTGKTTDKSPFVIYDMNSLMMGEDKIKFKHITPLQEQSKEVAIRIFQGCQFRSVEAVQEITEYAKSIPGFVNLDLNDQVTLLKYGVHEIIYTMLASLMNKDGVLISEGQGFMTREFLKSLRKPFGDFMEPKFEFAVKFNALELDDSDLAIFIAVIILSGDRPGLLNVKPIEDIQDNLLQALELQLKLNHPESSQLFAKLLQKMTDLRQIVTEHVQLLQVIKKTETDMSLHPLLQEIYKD", "test": "ALPHASCREEN binding assay, PPARγ ligand binding domain", "settings": "5 μM", "protocol": "as §1, §2"}}, "data": [{"smiles": "CCCCCCCC/C=C\\CCCCCCCC(=O)O[C@H](COC(=O)CCCCCCCCCCCCCCC)COP(=O)([O-])OCC[N+](C)(C)C", "note": "[16:0/18:1-GPC, 1-palmitoyl-2-oleoyl-sn-glycerol-3-phosphocholine]", "values": [{"measurement": "interaction with PPARδ", "setting": "PPARδ LBD", "result": "insubstantial"}, {"measurement": "binding to PPARγ", "setting": "PPARγ LBD", "result": "does not appear to bind"}]}]}
